PubChem BioAssay (NCI)
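Exposure lasted 48 hours, with cells grown in 96-well plates and compounds tested at five concentrations. At the TGI there is no net growth.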

Experiments:
Assay in all cases: NCI-60 cell line screen, 48 h
DLD-1 colon = system: DLD-1 colon
SR leukemia = system: SR leukemia
UACC-62 melanoma = system: UACC-62 melanoma
HCT-116 colon = system: HCT-116 colon
MCF7 breast = system: MCF7 breast
IGROV1 ovarian = system: IGROV1 ovarian
MDA-MB-231 breast = system: MDA-MB-231 breast
SK-MEL-5 melanoma = system: SK-MEL-5 melanoma
NCI-H226 lung = system: NCI-H226 lung
MDA-MB-435 = system: MDA-MB-435
MDA-N = system: MDA-N
SNB-78 CNS = system: SNB-78 CNS
SNB-19 CNS = system: SNB-19 CNS
M19-MEL melanoma = system: M19-MEL melanoma
NCI-H23 lung = system: NCI-H23 lung
KM20L2 colon = system: KM20L2 colon
KM12 colon = system: KM12 colon
HOP-92 NSCLC = system: HOP-92 NSCLC
UACC-257 melanoma = system: UACC-257 melanoma
K-562 leukemia = system: K-562 leukemia
UO-31 renal = system: UO-31 renal
U251 CNS = system: U251 CNS
ACHN renal = system: ACHN renal
HOP-62 NSCLC = system: HOP-62 NSCLC
PC-3 prostate = system: PC-3 prostate
HS 578T breast = system: HS 578T breast
SK-OV-3 ovarian = system: SK-OV-3 ovarian
HCT-15 colon = system: HCT-15 colon
SNB-75 CNS = system: SNB-75 CNS
RXF 393 renal = system: RXF 393 renal
HOP-18 NSCLC = system: HOP-18 NSCLC
CCRF-CEM leukemia = system: CCRF-CEM leukemia
SF-268 CNS = system: SF-268 CNS
A549 NSCLC = system: A549 NSCLC
T-47D breast = system: T-47D breast
DMS 273 small cell lung = system: DMS 273 small cell lung
OVCAR-4 ovarian = system: OVCAR-4 ovarian
OVCAR-5 ovarian = system: OVCAR-5 ovarian
NCI/ADR-RES ovarian = system: NCI/ADR-RES ovarian
COLO 205 colon = system: COLO 205 colon
CAKI-1 renal = system: CAKI-1 renal
SF-295 CNS = system: SF-295 CNS
SF-539 CNS = system: SF-539 CNS
BT-549 breast = system: BT-549 breast
XF 498 CNS = system: XF 498 CNS
DMS 114 small cell lung = system: DMS 114 small cell lung
TK-10 renal = system: TK-10 renal
NCI-H460 lung = system: NCI-H460 lung
SW-620 colon = system: SW-620 colon
HCC-2998 colon = system: HCC-2998 colon
NCI-H522 lung = system: NCI-H522 lung
HL-60(TB) leukemia = system: HL-60(TB) leukemia
MOLT-4 leukemia = system: MOLT-4 leukemia
MALME-3M melanoma = system: MALME-3M melanoma
RPMI-8226 leukemia = system: RPMI-8226 leukemia
LXFL 529 NSCLC = system: LXFL 529 NSCLC
OVCAR-8 ovarian = system: OVCAR-8 ovarian
M14 melanoma = system: M14 melanoma
SK-MEL-28 melanoma = system: SK-MEL-28 melanoma
SN12C renal = system: SN12C renal
786-0 renal = system: 786-0 renal
SK-MEL-2 melanoma = system: SK-MEL-2 melanoma
OVCAR-3 ovarian = system: OVCAR-3 ovarian
DU-145 prostate = system: DU-145 prostate
HT29 colon = system: HT29 colon
LOX IMVI melanoma = system: LOX IMVI melanoma
EKVX NSCLC = system: EKVX NSCLC

Q: How did the TGI (DLD-1 colon) turn out when `Nc1ccc(Cn2ccc3c4c(N)nc(N)nc4ccc32)cc1` was run?
A: The TGI was 17 µM.

Q: And the TGI (SR leukemia)?
A: Its TGI is 4.74 µM.

Q: And the TGI (UACC-62 melanoma)?
A: Its TGI is 1.5 µM.

Q: And the TGI (HCT-116 colon)?
A: The TGI was 1.5 µM.

Q: What about the TGI (MCF7 breast) of the same compound?
A: Its TGI is 14.3 µM.

Q: And the TGI (IGROV1 ovarian)?
A: Its TGI is 18.7 µM.

Q: What about the TGI (MDA-MB-231 breast) of the same compound?
A: The TGI was 3.48 µM.

Q: What about the TGI (SK-MEL-5 melanoma) of the same compound?
A: The TGI was 8.24 µM.

Q: And the TGI (NCI-H226 lung)?
A: The TGI was 27.7 µM.

Q: And the TGI (MDA-MB-435)?
A: Its TGI is 6.15 µM.

Q: What about the TGI (MDA-N) of the same compound?
A: The TGI was 14.2 µM.

Q: And the TGI (SNB-78 CNS)?
A: The TGI was 32.5 µM.

Q: And the TGI (SNB-19 CNS)?
A: Its TGI is 17.6 µM.

Q: And the TGI (M19-MEL melanoma)?
A: The TGI was 5.59 µM.

Q: And the TGI (NCI-H23 lung)?
A: Its TGI is 7.86 µM.

Q: And the TGI (KM20L2 colon)?
A: The TGI was 10.8 µM.

Q: What about the TGI (KM12 colon) of the same compound?
A: The TGI was 12.2 µM.

Q: What about the TGI (HOP-92 NSCLC) of the same compound?
A: Its TGI is 8.7 µM.

Q: And the TGI (UACC-257 melanoma)?
A: The TGI was 8.02 µM.

Q: What about the TGI (K-562 leukemia) of the same compound?
A: Its TGI is 2.44 µM.

Q: And the TGI (UO-31 renal)?
A: Its TGI is 19 µM.

Q: What about the TGI (U251 CNS) of the same compound?
A: The TGI was 5.02 µM.

Q: And the TGI (ACHN renal)?
A: The TGI was 6.58 µM.

Q: What about the TGI (HOP-62 NSCLC) of the same compound?
A: The TGI was 5.09 µM.

Q: And the TGI (PC-3 prostate)?
A: The TGI was 16.8 µM.

Q: What about the TGI (HS 578T breast) of the same compound?
A: The TGI was 7.32 µM.

Q: What about the TGI (SK-OV-3 ovarian) of the same compound?
A: Its TGI is 25.4 µM.

Q: What about the TGI (HCT-15 colon) of the same compound?
A: The TGI was 17.6 µM.

Q: And the TGI (SNB-75 CNS)?
A: The TGI was 12.5 µM.

Q: What about the TGI (RXF 393 renal) of the same compound?
A: The TGI was 15.4 µM.

Q: And the TGI (HOP-18 NSCLC)?
A: Its TGI is 21.9 µM.

Q: What about the TGI (CCRF-CEM leukemia) of the same compound?
A: The TGI was 2.71 µM.

Q: And the TGI (SF-268 CNS)?
A: The TGI was 25.6 µM.

Q: What about the TGI (A549 NSCLC) of the same compound?
A: Its TGI is 15.2 µM.

Q: What about the TGI (T-47D breast) of the same compound?
A: The TGI was 6.18 µM.

Q: What about the TGI (DMS 273 small cell lung) of the same compound?
A: Its TGI is 11.9 µM.

Q: And the TGI (OVCAR-4 ovarian)?
A: The TGI was 4.75 µM.

Q: And the TGI (OVCAR-5 ovarian)?
A: The TGI was 19.4 µM.

Q: What about the TGI (NCI/ADR-RES ovarian) of the same compound?
A: Its TGI is over 100 µM.

Q: And the TGI (COLO 205 colon)?
A: Its TGI is 2.72 µM.

Q: What about the TGI (CAKI-1 renal) of the same compound?
A: Its TGI is 18 µM.

Q: And the TGI (SF-295 CNS)?
A: The TGI was 2.15 µM.

Q: What about the TGI (SF-539 CNS) of the same compound?
A: Its TGI is 4.15 µM.

Q: What about the TGI (BT-549 breast) of the same compound?
A: The TGI was 16.4 µM.

Q: And the TGI (XF 498 CNS)?
A: The TGI was 2.9 µM.

Q: What about the TGI (DMS 114 small cell lung) of the same compound?
A: Its TGI is 1.94 µM.

Q: What about the TGI (TK-10 renal) of the same compound?
A: Its TGI is 13.6 µM.

Q: What about the TGI (NCI-H460 lung) of the same compound?
A: The TGI was 5.58 µM.

Q: What about the TGI (SW-620 colon) of the same compound?
A: The TGI was 2.27 µM.

Q: What about the TGI (HCC-2998 colon) of the same compound?
A: The TGI was 3 µM.

Q: What about the TGI (NCI-H522 lung) of the same compound?
A: The TGI was 3.72 µM.

Q: And the TGI (HL-60(TB) leukemia)?
A: Its TGI is 1.37 µM.

Q: And the TGI (MOLT-4 leukemia)?
A: Its TGI is over 51.7 µM.

Q: And the TGI (MALME-3M melanoma)?
A: The TGI was 7.04 µM.

Q: What about the TGI (RPMI-8226 leukemia) of the same compound?
A: The TGI was over 100 µM.

Q: What about the TGI (LXFL 529 NSCLC) of the same compound?
A: Its TGI is 15.7 µM.

Q: And the TGI (OVCAR-8 ovarian)?
A: Its TGI is 22 µM.

Q: And the TGI (M14 melanoma)?
A: Its TGI is 6.45 µM.

Q: What about the TGI (SK-MEL-28 melanoma) of the same compound?
A: Its TGI is 5.32 µM.

Q: What about the TGI (SN12C renal) of the same compound?
A: The TGI was 8.67 µM.

Q: And the TGI (786-0 renal)?
A: Its TGI is 16.4 µM.

Q: What about the TGI (SK-MEL-2 melanoma) of the same compound?
A: Its TGI is 5.15 µM.

Q: And the TGI (OVCAR-3 ovarian)?
A: Its TGI is 2.51 µM.

Q: And the TGI (DU-145 prostate)?
A: The TGI was 14.3 µM.

Q: What about the TGI (HT29 colon) of the same compound?
A: Its TGI is 2.18 µM.

Q: What about the TGI (LOX IMVI melanoma) of the same compound?
A: The TGI was 1.21 µM.

Q: And the TGI (EKVX NSCLC)?
A: Its TGI is 23.1 µM.
